Data set [1] can be described thus: LC/MS assay of total plasma nitrite and nitrate (NOx) in trial subjects. Conditions: per subject, nitric oxide treatment arm. The data set is classed as in vivo, human. The method, then: Because of the challenge to measure free NO in systemic circulation, the PK assessment was done via plasma concentration data of NOx (nitrite and nitrate). In addition, methemoglobin (another metabolite of NO) was used as a secondary variable for PK evaluation. This evaluation was done to understand the relationship between pharmacokinetic behavior of iNO and clinical outcomes. The sampling protocol included pre-treatment time points (less than 2 hours before initiation of NO dosing), as well as a variety of time points during iNO therapy and after discontinuation of iNO therapy.
A liquid chromatographic/mass […] (LC/MS) assay method was developed and qualified for measurement NOx in human plasma. The quantitation of NOx was performed using the ^15N-stable isotope labeled nitrate as an internal standard. Nitrate reductase and NADH was added to the samples for enzymatic reduction of nitrate to nitrite in plasma. Upon completion of the reduction reaction, acetone was added to precipitate plasma proteins. The alkylating reagent, pentafluorobenzyl bromide (PFBBr), was subsequently added to the samples to convert nitrite to a chemically stable pentafluorobenzyl derivative. After completion of derivatization, plasma supernatant was injected into the LC/MS for analysis. Plasma concentrations of total nitrite and nitrate were measured and reported as NOx using this assay method. […]

In data set [2] the test system is preterm infants less than 30 weeks gestational age requiring mechanical ventilation or positive pressure support. Nature of the data set: Multi-center, double blind, placebo-controlled randomized clinical trial of iNO for prevention of BPD. The data set is classed as in vivo, human. An excerpt: It has been discovered that certain biomarkers present in premature infants are predictive of the risk of developing BPD and/or the likelihood of a therapeutic response to iNO to prevent BPD. As used herein, the term “therapeutic response to iNO” means that iNO administration increases the rate of survival without bronchopulmonary dysplasia (BPD) at 36 weeks of post menstrual age compared to the rate of survival […] at 36 weeks of post menstrual age in an untreated premature infant population. As used herein, the term “premature infant”, “preterm infant” and the like means infants born at less than 30 weeks gestational age. The biomarkers identified are of three types: a) the concentration of metabolites of NO, such as nitrite and nitrate, in blood or plasma, b) the concentration of NO in exhaled air, and c) the presence or absence of a mutation in the eNOS gene that decreases endogenous NO production, or any combination thereof.
A multi-center, double blind, placebo-controlled randomized clinical trial was conducted to examine the efficacy of iNO in preterm infants less than 30 weeks gestational age and less than 1250 grams who required mechanical ventilation or positive pressure support on days 5 to 14 after birth. […]

For data set [3] the following is noted: in vivo; cited from earlier work.
Data set [4] relates to premature infants between 7 and 21 days of age requiring ventilator support. Conditions: decreasing concentrations from 20 ppm, minimum of 24 days; cited from earlier work.
Data set [5] has as its system mice with eNOS deficiency. Conditions: inhaled; cited from earlier work.

Where only a bound is given, the exact number is not on record here.

On to `[N]=O` [NITRIC OXIDE, nitric oxide], for which the “Lab Test Result (plasma NOx, total nitrite and nitrate)” value in data set [1] was “<LLOQ”. Moreover, the “Efficacy of iNO treatment” value in data set [2] (subjects having an average NOx concentration of about 20 or less) was “therapeutically effective”. For the same molecule, in data set [2] (subjects with NOx levels from 62.3 uM to 184 uM), the “Efficacy of iNO treatment” value is reported as “not effective”. In data set [3], the “Time before steady-state methemoglobin levels are attained” value was no less than 8 h. Besides, in data set [4], the Pulmonary outcome was “improves the pulmonary outcome” and the “Short term adverse effects” value is reported as “no apparent short term adverse effects”. Further, in data set [5], the “Alveolar and vascular growth” value is “stimulated alveolar and vascular growth”.

These data come from patent US12007399B2, “Method of identifying and treating premature infants at risk for BPD” (Mallinckrodt Pharmaceuticals Ireland Limited, priority 2014, dated 2024).
